Assays:
[1] = Hygroscopy, dynamic vapour sorption (DVS) isotherms (Example 15); type: physicochemical
Protocol: Water sorption isotherms were determined using a DVS Resolution gravimetric sorption analyzer (London, UK), or a DVS Intrinsic instrument (Surface measurement Systems). The sample was dried for 1000 minutes at 0% relative humidity (R.H.). Afterwards the dry weight was recorded. […] The equilibrium criterion for each relative humidity set point was 0.002% per minute relative mass change as a function of time.

[2] = Solubility of cholinate vs free acid and other salts, shake-flask method (Example 14); type: physicochemical
Protocol: (§1) Preparation of FaSSIF (Fasted State Simulated Intestinal Fluid) blank solution: 4.2 g NaOH, 44.7 g NaH2PO4*2 H2O, and 61.86 g NaCl were dissolved in approximately 9.5 L demineralized water. Then, the pH of this solution was adjusted to 6.50+/−0.05 using HCl or NaOH, respectively. In the last step, the final volume was adjusted to 10.0 L by the addition of demineralized water.
Preparation of the final FaSSIF solution: 4.48 g SIF (Simulated Intestinal Fluids) powder (provider: biorelevant.com, Product code: FFF01 (May 2022)) were dissolved in approximately 500 mL FaSSIF blank solution, then the final volume was adjusted to 2.0 L by the addition of FaSSIF blank solution. After 2 hours, the solution was considered to be ready to use and was used within 48 hours.
as §1, with “FeSSIF (Fed” for “FaSSIF (Fasted”, “40.4” for “4.2”, “118.74” for “44.7”, “NaCl,” for “NaH2PO4*2 H2O,”, “82.4 mL glacial acetic acid” for “61.86 g NaCl”, “5.00+/−0.05” for “6.50+/−0.05”
Preparation of the final FeSSIF solution: 22.4 g SIF powder (provider: biorelevant.com, Product code: FFF01 (May 2022)) were dissolved in approximately 500 mL FeSSIF blank solution, then the final volume was adjusted to 2.0 L by the addition of FeSSIF blank solution. The solution was considered to be ready to use immediately after manufacturing and was used within 48 hours.

N=C(N)NCCC[C@H](N)C(=O)O.O=C(O)c1cc(NC(=O)C2(c3ccc(C(F)(F)F)cc3F)CC2)ccc1-c1cnn(C2CCC2)c1 [Arginine Salt, Arginine salt of 2-(1-cyclobutyl-1H-pyrazol-4-yl)-5-[({1-[2-fluoro-4-(trifluoromethyl)phenyl]cyclopropyl}carbonyl)amino]benzoate]
Change in mass [%], Desorption ([1]; 0% Relative humidity): 31.74% | Change in mass [%], Sorption ([1]; 0% Relative humidity): 0.00% | Change in mass [%], Desorption ([1]; 10% Relative humidity): 20.17% | Change in mass [%], Sorption ([1]; 10% Relative humidity): 1.39% | Change in mass [%], Desorption ([1]; 20% Relative humidity): 12.15% | Change in mass [%], Sorption ([1]; 20% Relative humidity): 2.13% | Change in mass [%], Desorption ([1]; 30% Relative humidity): 10.78% | Change in mass [%], Sorption ([1]; 30% Relative humidity): 2.98% | Change in mass [%], Desorption ([1]; 40% Relative humidity): 10.09% | Change in mass [%], Sorption ([1]; 40% Relative humidity): 4.25% | Change in mass [%], Desorption ([1]; 50% Relative humidity): 9.59% | Change in mass [%], Sorption ([1]; 50% Relative humidity): 5.72% | Change in mass [%], Desorption ([1]; 60% Relative humidity): 9.10% | Change in mass [%], Sorption ([1]; 60% Relative humidity): 7.20% | Change in mass [%], Desorption ([1]; 70% Relative humidity): 6.12% | Change in mass [%], Sorption ([1]; 70% Relative humidity): 9.40% | Change in mass [%], Desorption ([1]; 80% Relative humidity): 4.54% | Change in mass [%], Sorption ([1]; 80% Relative humidity): 13.25% | Change in mass [%], Desorption ([1]; 90% Relative humidity): 2.87% | Change in mass [%], Sorption ([1]; 90% Relative humidity): 20.10% | Change in mass [%], Desorption ([1]; 95% Relative humidity): 1.60% | Change in mass [%], Sorption ([1]; 95% Relative humidity): 31.74%

O=C([O-])c1cc(NC(=O)C2(c3ccc(C(F)(F)F)cc3F)CC2)ccc1-c1cnn(C2CCC2)c1.[K+] [Potassium salt, Potassium 2-(1-cyclobutyl-1H-pyrazol-4-yl)-5-[({1-[2-fluoro-4-(trifluoromethyl)phenyl]cyclopropyl}carbonyl)amino]benzoate]
Change in mass [%], Desorption ([1]; 0% Relative humidity): 67.05% | Change in mass [%], Sorption ([1]; 0% Relative humidity): 1.84% | Change in mass [%], Desorption ([1]; 10% Relative humidity): 36.40% | Change in mass [%], Sorption ([1]; 10% Relative humidity): 3.33% | Change in mass [%], Desorption ([1]; 20% Relative humidity): 21.86% | Change in mass [%], Sorption ([1]; 20% Relative humidity): 4.12% | Change in mass [%], Desorption ([1]; 30% Relative humidity): 15.18% | Change in mass [%], Sorption ([1]; 30% Relative humidity): 5.53% | Change in mass [%], Desorption ([1]; 40% Relative humidity): 11.85% | Change in mass [%], Sorption ([1]; 40% Relative humidity): 8.59% | Change in mass [%], Desorption ([1]; 50% Relative humidity): 9.24% | Change in mass [%], Sorption ([1]; 50% Relative humidity): 11.39% | Change in mass [%], Desorption ([1]; 60% Relative humidity): 6.66% | Change in mass [%], Sorption ([1]; 60% Relative humidity): 14.10% | Change in mass [%], Desorption ([1]; 70% Relative humidity): 4.31% | Change in mass [%], Sorption ([1]; 70% Relative humidity): 17.79% | Change in mass [%], Desorption ([1]; 80% Relative humidity): 2.92% | Change in mass [%], Sorption ([1]; 80% Relative humidity): 24.21% | Change in mass [%], Desorption ([1]; 90% Relative humidity): 1.40% | Change in mass [%], Sorption ([1]; 90% Relative humidity): 37.54% | Change in mass [%], Desorption ([1]; 95% Relative humidity): 0.00% | Change in mass [%], Sorption ([1]; 95% Relative humidity): 67.05% | DVS Dm @ 30% R.H. (Sorption) ([1]; summarized results, 30% R.H.): 5.5% | DVS Dm @ 50% R.H. (Sorption) ([1]; summarized results, 50% R.H.): 11.4% | DVS Dm @ 80% R.H. (Sorption) ([1]; summarized results, 80% R.H.): 24.2% | solubility ([2]; Buffer pH 4.5, 25° C.): 5 mgfree acid/L | solubility ([2]; Buffer pH 7, 25° C.): 684 mgfree acid/L | solubility ([2]; Buffer pH 8, 25° C.): >11594 mgfree acid/L | solubility ([2]; FaSSIF (37° C.) (Fasted State Simulated Intestinal Fluid)): 781 mgfree acid/L | solubility ([2]; FeSSIF (37° C.) (Fed State Simulated Intestinal Fluid)): 24 mgfree acid/L | solubility ([2]; Water, 25° C.): 6425 mgfree acid/L
